Where a name gives a salt, the structure may show the parent alone.

T1 sequence (Q15858 whole entry): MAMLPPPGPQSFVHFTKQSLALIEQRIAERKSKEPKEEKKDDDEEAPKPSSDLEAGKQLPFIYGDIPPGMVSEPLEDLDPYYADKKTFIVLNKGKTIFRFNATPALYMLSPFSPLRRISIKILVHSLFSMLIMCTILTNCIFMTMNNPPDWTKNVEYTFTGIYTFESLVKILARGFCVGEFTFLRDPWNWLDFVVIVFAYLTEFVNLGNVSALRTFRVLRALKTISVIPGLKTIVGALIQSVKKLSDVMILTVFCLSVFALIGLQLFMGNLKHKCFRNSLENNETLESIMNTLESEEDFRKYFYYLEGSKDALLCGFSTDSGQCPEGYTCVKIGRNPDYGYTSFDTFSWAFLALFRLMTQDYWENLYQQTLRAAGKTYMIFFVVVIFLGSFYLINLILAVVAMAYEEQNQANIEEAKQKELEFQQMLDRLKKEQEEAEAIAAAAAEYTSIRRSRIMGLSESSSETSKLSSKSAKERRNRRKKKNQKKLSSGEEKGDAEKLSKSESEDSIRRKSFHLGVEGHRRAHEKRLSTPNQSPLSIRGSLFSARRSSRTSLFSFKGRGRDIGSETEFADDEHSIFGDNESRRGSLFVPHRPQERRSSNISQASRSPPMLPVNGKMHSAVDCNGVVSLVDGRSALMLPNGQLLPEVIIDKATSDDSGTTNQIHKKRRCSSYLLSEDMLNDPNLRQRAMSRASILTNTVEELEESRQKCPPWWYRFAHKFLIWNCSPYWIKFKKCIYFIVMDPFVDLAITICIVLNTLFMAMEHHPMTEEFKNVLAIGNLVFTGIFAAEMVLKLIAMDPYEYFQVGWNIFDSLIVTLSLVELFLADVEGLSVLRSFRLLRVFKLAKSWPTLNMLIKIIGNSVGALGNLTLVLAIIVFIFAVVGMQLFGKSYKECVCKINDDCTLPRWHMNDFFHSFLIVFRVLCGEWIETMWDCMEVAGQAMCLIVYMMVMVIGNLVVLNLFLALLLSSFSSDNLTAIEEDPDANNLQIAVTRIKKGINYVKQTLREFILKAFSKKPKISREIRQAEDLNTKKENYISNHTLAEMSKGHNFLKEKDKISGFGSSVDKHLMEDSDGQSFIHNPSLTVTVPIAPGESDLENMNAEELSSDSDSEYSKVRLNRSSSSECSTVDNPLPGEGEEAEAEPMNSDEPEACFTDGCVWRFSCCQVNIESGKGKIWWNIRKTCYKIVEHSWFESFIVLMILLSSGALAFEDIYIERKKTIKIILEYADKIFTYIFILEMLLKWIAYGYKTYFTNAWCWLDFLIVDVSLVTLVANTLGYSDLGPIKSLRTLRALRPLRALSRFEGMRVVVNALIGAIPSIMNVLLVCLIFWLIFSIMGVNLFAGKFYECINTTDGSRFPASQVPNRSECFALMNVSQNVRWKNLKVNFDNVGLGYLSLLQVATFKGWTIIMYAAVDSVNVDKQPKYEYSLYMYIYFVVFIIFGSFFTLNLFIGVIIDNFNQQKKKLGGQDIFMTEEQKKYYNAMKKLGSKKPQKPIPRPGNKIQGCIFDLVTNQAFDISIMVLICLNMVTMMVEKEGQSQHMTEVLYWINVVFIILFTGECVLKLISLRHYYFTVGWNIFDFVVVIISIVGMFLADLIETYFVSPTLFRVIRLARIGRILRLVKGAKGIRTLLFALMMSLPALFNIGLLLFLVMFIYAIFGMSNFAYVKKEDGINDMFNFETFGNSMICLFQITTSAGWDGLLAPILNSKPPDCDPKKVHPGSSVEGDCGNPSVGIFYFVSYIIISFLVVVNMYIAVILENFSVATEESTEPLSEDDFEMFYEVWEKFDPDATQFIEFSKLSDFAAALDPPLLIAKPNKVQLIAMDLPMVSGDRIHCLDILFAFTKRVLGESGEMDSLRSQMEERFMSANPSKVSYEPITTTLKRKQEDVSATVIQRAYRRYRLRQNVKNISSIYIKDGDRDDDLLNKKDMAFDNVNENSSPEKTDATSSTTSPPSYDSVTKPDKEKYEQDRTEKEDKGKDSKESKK

The test addresses T1, Nav1.7 (or SCN9A) channel (Homo sapiens, UniProt Q15858).
T1 construct: expressed in transfected cells
Description: Nav1.7 (hSCN9A) channel block, PatchXpress whole-cell electrophysiology. The note with it: PatchXpress platform; HEK cells stably transfected with hSCN9A; estimated IC-50 calculated from single point % inhibition at V1/2; read-out: Nav1.7 EIC50. It is filed as cell-based. Here is the method:
The ability of the compounds of formula (I) to block the Nav1.7 (or SCN9A) channel were measured using the assay described below.
Human Embryonic Kidney (HEK) cells were transfected with an hSCN9A construct using lipofectamine reagent (Invitrogen), using standard techniques. Cells stably expressing the hSCN9A constructs were identified by their resistance to G-418 (400 μg/ml). Clones were screened for expression using the whole-cell voltage-clamp technique.
HEK cells stably transfected with hSCN9A were maintained in DMEM medium supplemented with 10% heat-inactivated fetal bovine serum and 400 μg/ml G-418 in an incubator at 37° C. with a humidified atmosphere of 10% CO2. For HTS, cells were harvested from flasks by trypsinization and replated in an appropriate multi-well plate (typically 96 or 384 wells/plate) such that confluence would be achieved within 24 hours of plating. For electrophysiological studies, cells were removed from the culture flask by brief trypsinization and re-plated at low density onto glass cover slips. Cells were typically used for electrophysiological experiments within 24 to 72 hours after plating.
Cover slips containing HEK cells expressing hSCN9A were placed in a bath on the stage of an inverted microscope and perfused (approximately 1 ml/minutes) with extracellular solution of the following composition: 138 mM NaCl, 2 mM CaCl2, 5.4 mM KCl, 1 mM MgCl2, 10 mM glucose, and 10 mM HEPES, pH 7.4, with NaOH. […] The osmolarity of the extracellular and intracellular solutions was 300 mOsm/kg and 295 mOsm/kg, respectively. All recordings were made at room temperature (22-24° C.) using AXOPATCH 200B amplifiers and PCLAMP software (Axon Instruments, Burlingame, Calif.).
hSCN9A currents in HEK cells were measured using the whole-cell configuration of the patch-clamp technique (Hamill et al., 1981). Uncompensated series resistance was typically 2 to 5 mega ohms and >85% series resistance compensation was routinely achieved. As a result, voltage errors were negligible and no correction was applied. Current records were acquired at 20 to 50 KHz and filtered at 5 to 10 KHz.
HEK cells stably transfected with hSCN9A were viewed under Hoffman contrast optics and placed in front of an array of flow pipes emitting either control or compound-containing extracellular solutions. All compounds were dissolved in dimethyl sulfoxide to make 10 mM stock solutions, which were then diluted into extracellular solution to attain the final concentrations desired. […] The voltage-dependence of inactivation was determined by applying a series of depolarizing prepulses (8 sec long in 10 mV increments) from a negative holding potential. The voltage was then immediately stepped to 0 mV to assess the magnitude of the sodium current. Currents elicited at 0 mV were plotted as a function of prepulse potential to allow estimation of the voltage at which 50% of the channels were inactivated (midpoint of inactivation or V1/2). Compounds were tested for their ability to inhibit hSCN9A sodium channels by activating the channel with a 20 msec voltage step to 0 mV following an 8 second conditioning prepulse to the empirically determined V1/2. Compound effect (% inhibition) was determined by difference in current amplitude before and after application of test compounds. […] Inhibition values <20% and >80% were excluded from the calculation.
Electrophysiological assays were conducted with PatchXpress 7000 hardware and associated software (Molecular Devices Corp). All assay buffers and solutions were identical to those used in conventional whole-cell voltage clamp experiments described above. hSCN9A cells were grown as above to 50%-80% confluency and harvested by trypsinization. Trypsinized cells were washed and resuspended in extracellular buffer at a concentration of 1×10^6 cells/ml. The onboard liquid handling facility of the PatchXpress was used for dispensing cells and application of test compounds. […]
With `CC(C)COc1ncc(OCc2cc(F)c(C(=O)NS(C)(=O)=O)cc2F)cc1Cl` [Example 1, 4-{[(5-Chloro-6-isobutoxypyridin-3-yl)oxy]methy}-2,5-difluoro-N-(methylsulfonyl)benzamide diethylamine salt], the IC50 is 13.9 nM. `CC(C)COc1ncc(OCc2ccc(C(=O)NS(C)(=O)=O)cc2)cc1Cl` [Example 3, 4-{[(5-Chloro-6-isobutoxypyridin-3-yl)oxy]methyl}-N-(methylsulfonyl)benzamide diethylamine salt]: the IC50 was 324 nM. As for `COc1ncc(OCc2cc(F)c(C(=O)NS(=O)(=O)C3CC3)cc2F)cc1Cl` [Example 4, 4-((5-Chloro-6-methoxypyridin-3-yloxy)methyl)-N-(cyclopropylsulfonyl)-2,5-difluorobenzamide], the figure is 2600 nM.

Turning to `COc1cc(C(=O)NS(C)(=O)=O)ccc1COc1cnc(OCC(C)C)c(Cl)c1` [Example 5, 4-((5-Chloro-6-isobutoxypyridin-3-yloxy)methyl)-3-methoxy-N-(methylsulfonyl)benzamide diethylamine salt], the IC50 is 281 nM. With `COc1ncc(OCc2ccc(C(=O)NS(C)(=O)=O)cc2)cc1Cl` [Example 6, 4-((5-Chloro-6-methoxypyridin-3-yloxy)methyl)-N-(methylsulfonyl)benzamide], the IC50 was 3580 nM. Turning to `COc1ccc(OCc2ccc(C(=O)NS(C)(=O)=O)cc2)cn1` [Example 7, 4-{[(6-Methoxypyridin-3-yl)oxy]methyl}-N-(methylsulfonyl)benzamide], the IC50 is 35700 nM. Take `CS(=O)(=O)NC(=O)c1ccc(OCc2ccc(C(F)(F)F)nc2)cc1` [Example 9, N-(methylsulfonyl)-4-{[6-(trifluoromethyl)pyridin-3-yl]methoxy}benzamide formate salt]: the IC50 is > 1000 nM. As for `CS(=O)(=O)NC(=O)c1ccc(COc2cncc(Cl)c2)cc1` [Example 10, 4-((5-Chloropyridin-3-yloxy)methyl)-N-(methylsulfonyl)benzamide], the figure is 8460 nM; as for `CS(=O)(=O)NC(=O)c1cc(F)c(COc2cnc(OCCC(F)(F)F)c(Cl)c2)cc1F` [Example 11, 4-({[5-Chloro-6-(3,3,3-trifluoropropoxy)pyridin-3-yl]oxy}methyl)-2,5-difluoro-N-(methylsulfonyl)benzamide], 39.2 nM. With `CS(=O)(=O)NC(=O)c1cc(F)c(COc2cnc(C(F)(F)F)c(Cl)c2)cc1F` [Example 12, 4-({[5-Chloro-6-(trifluoromethyl)pyridin-3-yl]oxy}methyl)-2,5-difluoro-N-(methylsulfonyl)benzamide], the IC50 is 843 nM. Consider `CC(C)(F)COc1ncc(OCc2cc(F)c(C(=O)NS(C)(=O)=O)cc2F)cc1Cl` [Example 13, 4-((5-Chloro-6-(2-fluoro-2-methylpropoxy)pyridin-3-yloxy)methyl)-2,5-difluoro-N-(methylsulfonyl)benzamide], for which the IC50 was 81.4 nM. Consider `CC1(COc2ncc(OCc3cc(F)c(C(=O)NS(C)(=O)=O)cc3F)cc2Cl)CC1` [Example 14, 4-((5-Chloro-6-((1-methylcyclopropyl)methoxy)pyridin-3-yloxy)methyl)-2,5-difluoro-N-(methylsulfonyl)benzamide], for which the IC50 is 66.8 nM. Next, `[2H]C([2H])([2H])C(Oc1ncc(OCc2cc(F)c(C(=O)NS(C)(=O)=O)cc2F)cc1Cl)(C([2H])([2H])[2H])C([2H])([2H])[2H]` [Example 15]: 30.8 nM. On to `CS(=O)(=O)NC(=O)c1cc(F)c(COc2cnc(OCC(F)(F)F)c(Cl)c2)cc1F` [Example 16, 4-((5-Chloro-6-(2,2,2-trifluoroethoxy)pyridin-3-yloxy)methyl)-2,5-difluoro-N-(methylsulfonyl)benzamide], for which the IC50 was 150 nM. Next, `CS(=O)(=O)NC(=O)c1cc(F)c(COc2cnc(OCC3CC3)c(Cl)c2)cc1F` [Example 17, 4-((5-Chloro-6-(cyclopropylmethoxy)pyridin-3-yloxy)methyl)-2,5-difluoro-N-(methylsulfonyl)benzamide]: 156 nM; `CC(C)(C)Oc1ncc(OCc2cc(F)c(C(=O)NS(C)(=O)=O)cc2F)cc1Cl` [Example 18, 4-((6-tert-Butoxy-5-chloropyridin-3-yloxy)methyl)-2,5-difluoro-N-(methylsulfonyl)benzamide]: 80.6 nM.

For `CS(=O)(=O)NC(=O)c1cc(F)c(COc2cnc(OCC3CC(F)(F)C3)c(Cl)c2)cc1F` [Example 19, 4-((5-Chloro-6-((3,3-difluorocyclobutyl)methoxy)pyridin-3-yloxy)methyl)-2,5-difluoro-N-(methylsulfonyl)benzamide], the IC50 is 730 nM. In the case of `CS(=O)(=O)NC(=O)c1cc(F)c(COc2cncc(Cl)c2)cc1F` [Example 20, 4-{[(5-Chloropyridin-3-yl)oxy]methyl}-2,5-difluoro-N-(methylsulfonyl)benzamide], the IC50 was > 3000 nM. On to `[2H]C([2H])([2H])C([2H])(Oc1ncc(OCc2cc(F)c(C(=O)NS(C)(=O)=O)cc2F)cc1Cl)C([2H])([2H])[2H]` [Example 21, 4-{[(5-Chloro-6-d7-isopropoxypyridin-3-yl)oxy]methyl}-2,5-difluoro-N-(methylsulfonyl)benzamide], for which the IC50 is 161 nM. Next, `CS(=O)(=O)NC(=O)c1cc(F)c(COc2cnc(OCC(F)(F)C(F)F)c(Cl)c2)cc1F` [Example 22, 4-({[5-Chloro-6-(2,2,3,3-tetrafluoropropoxy)pyridin-3-yl]oxy}methyl)-2,5-difluoro-N-(methylsulfonyl)benzamide]: 9.2 nM; `[2H]C(C)(C)Oc1ncc(OCc2cc(F)c(C(=O)NS(C)(=O)=O)cc2F)cc1Cl` [Example 24, 4-{[(5-Chloro-6-d1-isopropoxypyridin-3-yl)oxy]methyl}-2,5-difluoro-N-(methylsulfonyl)benzamide]: 140 nM; `CS(=O)(=O)NC(=O)c1cc(F)c(COc2cnc(OCC(F)(F)C(F)(F)F)c(Cl)c2)cc1F` [Example 25, 4-({[5-Chloro-6-(2,2,3,3,3-pentafluoropropoxy)pyridin-3-yl]oxy}methyl)-2,5-difluoro-N-(methylsulfonyl)benzamide]: 18.6 nM. In the case of `CS(=O)(=O)NC(=O)c1cc(F)c(COc2ccc(C(F)(F)F)nc2)cc1F` [Example 26, 2,5-Difluoro-N-(methylsulfonyl)-4-({[6-(trifluoromethyl)pyridin-3-yl]oxy}methyl)benzamide], the IC50 is 4980 nM.

`CC(Oc1ncc(OCc2cc(F)c(C(=O)NS(C)(=O)=O)cc2F)cc1Cl)C(F)(F)F` (centres unmarked) [Example 27, 4-((5-Chloro-6-(1,1,1-trifluoropropan-2-yloxy)pyridin-3-yloxy)methyl)-2,5-difluoro-N-(methylsulfonyl)benzamide]: the IC50 is 42 nM. As to `COc1ncc(OCc2cc(F)c(C(=O)NS(C)(=O)=O)cc2F)cc1Cl` [Example 28, 4-((5-Chloro-6-methoxypyridin-3-yloxy)methyl)-2,5-difluoro-N-(methylsulfonyl)benzamide], the IC50 was 7440 nM. For `CC(C)Oc1ncc(COc2cc(F)c(C(=O)NS(C)(=O)=O)cc2F)cc1Cl` [Example 29, 4-((5-Chloro-6-isopropoxypyridin-3-yl)methoxy)-2,5-difluoro-N-(methylsulfonyl)benzamide diethylamine salt], the IC50 is 838 nM.

The values are drawn from patent US9102621B2, “Acyl sulfonamide compounds” (Pfizer Limited, priority 2010, dated 2015).
